Laboratory results from ChEMBL document CHEMBL1146527, “The guineamides, novel cyclic depsipeptides from a Papua New Guinea collection of the marine cyanobacterium Lyngbya majuscula” (J Nat Prod, 2003).
Calls of active or inactive are those of the source. The rule behind the calls is not given here.

Experiments:
N2a = assay: Cytotoxicity against mouse Neuro2a cells at 10 ug/mL; assay type: functional, cell-based
[1] = Cytotoxicity against mouse Neuro2a cells; assay type: functional, cell-based; conditions: N2a

Row | SMILES | Activity (N2a) | IC50 [1]
1 | CC[C@H]1NC(=O)c2csc(n2)[C@H](C)NC(=O)[C@H](Cc2ccccc2)N(C)C(=O)[C@H](C(C)C)N(C)C(=O)[C@H](C)OC(=O)[C@H]1C | inactive | –
2 | CC1NC(=O)c2csc(n2)[C@H](C)NC(=O)[C@H](Cc2ccccc2)N(C)C(=O)[C@H](C(C)C)N(C)C(=O)[C@H](C(C)C)OC(=O)C1C (stereo partly drawn) [GUINEAMIDE B] | – | 15 µM
3 | C#CCCCC1NC(=O)[C@H](C)N(C)C(=O)[C@H](C(C)C)NC(=O)[C@H](Cc2ccc(OC)cc2)N(C)C(=O)C(C(C)CC)OC(=O)C1C (stereo partly drawn) [GUINEAMIDE C] | – | 16 µM
